Assay results from DBAASP.
Values after ≈ are worked out from the molar mass of the structure shown.

Key:
Assay in all cases: ≥ marks a high value that may be exact or a test limit, other limits are often not marked, values filed in µg/mL are converted to µM
[1] = tested on: Haemophilus influenzae MTCC 621
[2] = tested on: Proteus mirabilis MTCC 3158
[3] = tested on: Escherichia coli K12 MG1655
[4] = tested on: Corynebacterium glutamicum MTCC 2679
[5] = tested on: Pluralibacter gergoviae MTCC 3826
[6] = tested on: Enterococcus faecalis MTCC 439
[7] = tested on: Shigella boydii MTCC 11947
[8] = tested on: Pseudomonas aeruginosa MTCC 3542
[9] = tested on: Alcaligenes faecalis MTCC 1937
[10] = tested on: Klebsiella pneumoniae MTCC 7407
[11] = tested on: Acinetobacter baumannii MTCC 9829
[12] = tested on: Staphylococcus aureus MTCC 3160
[13] = tested on: Alkalihalobacillus alcalophilus MTCC 860
[14] = tested on: Bordetella bronchiseptica MTCC 6837
[15] = tested on: Proteus vulgaris MTCC 1771
[16] = tested on: Salmonella enterica subsp. enterica serovar Typhimurium ATCC 14028
[17] = tested on: Klebsiella oxytoca MTCC 2275
[18] = tested on: Shigella flexneri MTCC 1457
[19] = tested on: Vibrio cholerae MTCC 3904
[20] = tested on: Klebsiella aerogenes MTCC 111
[21] = tested on: Salmonella enterica MTCC 9844
[22] = tested on: Staphylococcus haemolyticus MTCC 3383
[23] = tested on: Citrobacter koseri MTCC 1657
[24] = tested on: Citrobacter freundii MTCC 1658
[25] = tested on: Stenotrophomonas maltophilia MTCC 1890
Salmonella sp. = tested on: Salmonella sp.

| SMILES | MIC [1] | MIC [2] | MIC [3] | MIC [4] | MIC [5] | MIC [6] | MIC [7] | MIC [8] | MIC [9] | MIC [10] | MIC [11] | MIC [12] | MIC [13] | MIC [14] | MIC [15] | MIC [16] | MIC [17] | MIC [18] | MIC [19] | MIC [20] | other results |
| --- | --- | --- | --- | --- | --- | --- | --- | --- | --- | --- | --- | --- | --- | --- | --- | --- | --- | --- | --- | --- | --- |
| CC[C@H](C)[C@H](NC(=O)[C@H](CCCCN)NC(=O)[C@H](CCCCN)NC(=O)[C@H](C)NC(=O)[C@H](CCCCN)NC(=O)[C@H](CO)NC(=O)[C@H](CCCN=C(N)N)NC(=O)[C@H](Cc1c[nH]c2ccccc12)NC(=O)[C@H](CCCCN)NC(=O)[C@H](CCCCN)NC(=O)[C@H](Cc1c[nH]c2ccccc12)NC(=O)[C@H](CCCN=C(N)N)NC(=O)[C@H](CCCCN)NC(=O)[C@@H](N)Cc1ccc(O)cc1)C(=O)N[C@@H](CC(C)C)C(=O)O [YKRWKKWRSKAKKIL] | 15.8 µM (≈ 32 µg/mL) | ≥ 63.4 µM | 1.98 µM (≈ 4 µg/mL) | 0.99 µM (≈ 2 µg/mL) | ≥ 63.4 µM | ≥ 63.4 µM | 3.96 µM (≈ 8 µg/mL) | ≥ 63.4 µM | ≥ 63.4 µM | ≥ 63.4 µM | 7.92 µM (≈ 16 µg/mL) | ≥ 63.4 µM | 31.7 µM (≈ 64 µg/mL) | 3.96 µM (≈ 8 µg/mL) | 31.7 µM (≈ 64 µg/mL) | 15.8 µM (≈ 32 µg/mL) | 15.8 µM (≈ 32 µg/mL) | 3.96 µM (≈ 8 µg/mL) | ≥ 63.4 µM | ≥ 63.4 µM | MIC [21]: 7.92 µM (≈ 16 µg/mL); MIC [22]: 1.98 µM (≈ 4 µg/mL); MIC [23]: 7.92 µM (≈ 16 µg/mL); MIC [24]: ≥ 63.4 µM; MIC [25]: ≥ 63.4 µM |
| CC[C@H](C)[C@H](NC(=O)[C@H](C)NC(=O)[C@H](CC(C)C)NC(=O)[C@H](C)NC(=O)[C@H](CC(C)C)NC(=O)[C@H](CCCCN)NC(=O)[C@H](CC(C)C)NC(=O)[C@H](C)NC(=O)[C@H](CO)NC(=O)[C@H](C)NC(=O)[C@H](CC(C)C)NC(=O)[C@H](CC(C)C)NC(=O)[C@H](CCCCN)NC(=O)[C@H](CCCCN)NC(=O)[C@H](C)NC(=O)[C@@H](NC(=O)[C@@H](N)CCC(=O)O)C(C)C)C(=O)O [EVAKKLLASALKLALAI] | ≥ 36.5 µM | ≥ 73.1 µM | ≥ 73.1 µM | 18.3 µM (≈ 32 µg/mL) | ≥ 73.1 µM | ≥ 73.1 µM | ≥ 73.1 µM | ≥ 73.1 µM | ≥ 73.1 µM | ≥ 73.1 µM | ≥ 73.1 µM | ≥ 73.1 µM | ≥ 73.1 µM | 9.13 µM (≈ 16 µg/mL) | ≥ 73.1 µM | > 73.1 µM | ≥ 73.1 µM | ≥ 73.1 µM | ≥ 73.1 µM | ≥ 73.1 µM | MIC [21]: ≥ 73.1 µM; MIC [22]: ≥ 73.1 µM; MIC [23]: ≥ 73.1 µM; MIC [24]: ≥ 73.1 µM; MIC [25]: ≥ 73.1 µM |
| CC(C)C[C@H](NC(=O)[C@H](CCCCN)NC(=O)[C@H](CC(C)C)NC(=O)[C@@H](N)CC(C)C)C(=O)N[C@@H](Cc1ccccc1)C(=O)N[C@@H](Cc1ccccc1)C(=O)N1CCC[C@H]1C(=O)N[C@@H](Cc1ccccc1)C(=O)N[C@@H](CC(C)C)C(=O)N[C@@H](CCC(=O)O)C(=O)N[C@H](C(=O)NCC(=O)N[C@@H](CCC(=O)O)C(=O)O)[C@@H](C)O [LLKLFFPFLETGE] | – | – | – | – | – | – | – | – | – | – | – | – | – | – | – | – | – | – | – | – | MIC (Salmonella sp.): ≥ 256 µM |
| CC[C@H](C)[C@H](NC(=O)[C@H](C)N)C(=O)N[C@H](C(=O)N[C@@H](CCC(=O)O)C(=O)N[C@@H](CCC(N)=O)C(=O)N[C@@H](CC(C)C)C(=O)N[C@@H](CCCN=C(N)N)C(=O)N[C@@H](CCCCN)C(=O)N[C@@H](CCCN=C(N)N)C(=O)N[C@@H](CS)C(=O)O)C(C)C [AIVEQLRKRC] | ≥ 105 µM | ≥ 105 µM | ≥ 105 µM | ≥ 105 µM | ≥ 105 µM | ≥ 105 µM | ≥ 105 µM | ≥ 105 µM | ≥ 105 µM | ≥ 105 µM | ≥ 105 µM | ≥ 105 µM | ≥ 105 µM | ≥ 105 µM | ≥ 105 µM | > 105 µM | ≥ 105 µM | ≥ 105 µM | ≥ 105 µM | ≥ 105 µM | MIC [21]: ≥ 105 µM; MIC [22]: ≥ 105 µM; MIC [23]: ≥ 105 µM; MIC [24]: ≥ 105 µM; MIC [25]: ≥ 105 µM |
